Assays:
[1] = target: Kappa-type opioid receptor (Homo sapiens, UniProt P41145); assay: GPCRScan assay: inhibition of KOR; set-up: radioligand conc. used [nm] 0.6 – 1.2, parental cells stable HEK
[2] = test system: Tyrosine-protein kinase ABL1 (Homo sapiens), P00519 [H396P]
[3] = target: Activin receptor type-1-like (Homo sapiens) (UniProt P37023)
[4] = target: Atypical kinase COQ8B, mitochondrial (Homo sapiens) (UniProt Q96D53)
[5] = target: RAC-gamma serine/threonine-protein kinase (Homo sapiens) (UniProt Q9Y243)
[6] = target: Mitogen-activated protein kinase kinase kinase 6 (Homo sapiens) (UniProt O95382)
[7] = test system: Serine/threonine-protein kinase B-raf (Homo sapiens), P15056 [V600E]
[8] = target: Serine/threonine-protein kinase BRSK1 (Homo sapiens) (UniProt Q8TDC3)
[9] = target: Calcium/calmodulin-dependent protein kinase type 1B (Homo sapiens) (UniProt Q6P2M8)
[10] = target: Cyclin-dependent kinase 8 (Homo sapiens) (UniProt P49336)
[11] = target: Cyclin-dependent kinase-like 3 (Homo sapiens) (UniProt Q8IVW4)
[12] = target: Casein kinase I isoform alpha-like (Homo sapiens) (UniProt Q8N752)
[13] = target: Serine/threonine-protein kinase DCLK3 (Homo sapiens) (UniProt Q9C098)
[14] = target: Epithelial discoidin domain-containing receptor 1 (Homo sapiens, UniProt Q08345)
[15] = test system: Epidermal growth factor receptor (Homo sapiens), P00533 [L861Q]
[16] = target: Ephrin type-A receptor 4 (Homo sapiens) (UniProt P54764)
[17] = target: Ephrin type-B receptor 3 (Homo sapiens) (UniProt P54753)
[18] = target: Ephrin type-B receptor 6 (Homo sapiens) (UniProt O15197)
[19] = target: Receptor tyrosine-protein kinase erbB-3 (Homo sapiens) (UniProt P21860)
[20] = target: Mitogen-activated protein kinase 3 (Homo sapiens) (UniProt P27361)
[21] = target: Fibroblast growth factor receptor 4 (Homo sapiens) (UniProt P22455)
[22] = target: Tyrosine-protein kinase Fgr (Homo sapiens) (UniProt P09769)
[23] = test system: Receptor-type tyrosine-protein kinase FLT3 (Homo sapiens), P36888 [UNDEFINED MUTATION]
[24] = test system: Receptor-type tyrosine-protein kinase FLT3 (Homo sapiens), P36888 [N841I]
[25] = target: Interleukin-1 receptor-associated kinase 1 (Homo sapiens) (UniProt P51617)
[26] = test system: Leucine-rich repeat serine/threonine-protein kinase 2 (Homo sapiens), Q5S007 [G2019S]
[27] = test system: Hepatocyte growth factor receptor (Homo sapiens), P08581 [M1250T]
[28] = target: Dual specificity mitogen-activated protein kinase kinase 7 (Homo sapiens) (UniProt O14733)
[29] = target: Serine/threonine-protein kinase 3 (Homo sapiens) (UniProt Q13188)
[30] = target: Serine/threonine-protein kinase 38-like (Homo sapiens) (UniProt Q9Y2H1)
[31] = target: Phosphatidylinositol 4-phosphate 3-kinase C2 domain-containing subunit beta (Homo sapiens) (UniProt O00750)
[32] = test system: Phosphatidylinositol 4,5-bisphosphate 3-kinase catalytic subunit alpha isoform (Homo sapiens), P42336 [E545A]
[33] = test system: Phosphatidylinositol 4,5-bisphosphate 3-kinase catalytic subunit alpha isoform (Homo sapiens), P42336 [I800L]
[34] = target: Phosphatidylinositol 4,5-bisphosphate 3-kinase catalytic subunit delta isoform (Homo sapiens) (UniProt O00329)
[35] = target: cGMP-dependent protein kinase 1 (Homo sapiens) (UniProt Q13976)
[36] = target: Serine/threonine-protein kinase RIO1 (Homo sapiens) (UniProt Q9BRS2)
[37] = target: Serine/threonine-protein kinase RIO3 (Homo sapiens) (UniProt O14730)
[38] = target: Ribosomal protein S6 kinase beta-1 (Homo sapiens) (UniProt P23443)
[39] = target: STE20-like serine/threonine-protein kinase (Homo sapiens) (UniProt Q9H2G2)
[40] = target: Serine/threonine-protein kinase 36 (Homo sapiens) (UniProt Q9NRP7)
[41] = target: Serine/threonine-protein kinase TBK1 (Homo sapiens) (UniProt Q9UHD2)
Angiopoietin-1 receptor = Angiopoietin-1 receptor (Homo sapiens, UniProt Q02763)
[42] = target: D(1A) dopamine receptor (Homo sapiens) (UniProt P21728); conditions: Compound concentration 10.0 uM
[43] = target: D(4) dopamine receptor (Homo sapiens) (UniProt P21917); conditions: Compound concentration 10.0 uM
[44] = target: Alpha-2B adrenergic receptor (Homo sapiens) (UniProt P18089); conditions: Compound concentration 10.0 uM
[45] = Compound concentration 100.0 nM
[46] = Compound concentration 1000.0 nM

Chain of Kappa-type opioid receptor (P41145 whole entry): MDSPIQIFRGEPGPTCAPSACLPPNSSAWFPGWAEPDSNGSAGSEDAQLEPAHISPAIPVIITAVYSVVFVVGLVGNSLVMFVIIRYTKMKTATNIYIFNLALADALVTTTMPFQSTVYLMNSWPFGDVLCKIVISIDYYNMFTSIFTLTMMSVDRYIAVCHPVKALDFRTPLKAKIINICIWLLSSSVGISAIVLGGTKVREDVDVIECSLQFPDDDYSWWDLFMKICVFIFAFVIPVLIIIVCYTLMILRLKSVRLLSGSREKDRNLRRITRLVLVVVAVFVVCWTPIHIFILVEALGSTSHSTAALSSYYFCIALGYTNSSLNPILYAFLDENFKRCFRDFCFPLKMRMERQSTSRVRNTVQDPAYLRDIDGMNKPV
Chain of Leucine-rich repeat serine/threonine-protein kinase 2 (Homo sapiens), Q5S007 [G2019S] (Q5S007 whole entry G2019S): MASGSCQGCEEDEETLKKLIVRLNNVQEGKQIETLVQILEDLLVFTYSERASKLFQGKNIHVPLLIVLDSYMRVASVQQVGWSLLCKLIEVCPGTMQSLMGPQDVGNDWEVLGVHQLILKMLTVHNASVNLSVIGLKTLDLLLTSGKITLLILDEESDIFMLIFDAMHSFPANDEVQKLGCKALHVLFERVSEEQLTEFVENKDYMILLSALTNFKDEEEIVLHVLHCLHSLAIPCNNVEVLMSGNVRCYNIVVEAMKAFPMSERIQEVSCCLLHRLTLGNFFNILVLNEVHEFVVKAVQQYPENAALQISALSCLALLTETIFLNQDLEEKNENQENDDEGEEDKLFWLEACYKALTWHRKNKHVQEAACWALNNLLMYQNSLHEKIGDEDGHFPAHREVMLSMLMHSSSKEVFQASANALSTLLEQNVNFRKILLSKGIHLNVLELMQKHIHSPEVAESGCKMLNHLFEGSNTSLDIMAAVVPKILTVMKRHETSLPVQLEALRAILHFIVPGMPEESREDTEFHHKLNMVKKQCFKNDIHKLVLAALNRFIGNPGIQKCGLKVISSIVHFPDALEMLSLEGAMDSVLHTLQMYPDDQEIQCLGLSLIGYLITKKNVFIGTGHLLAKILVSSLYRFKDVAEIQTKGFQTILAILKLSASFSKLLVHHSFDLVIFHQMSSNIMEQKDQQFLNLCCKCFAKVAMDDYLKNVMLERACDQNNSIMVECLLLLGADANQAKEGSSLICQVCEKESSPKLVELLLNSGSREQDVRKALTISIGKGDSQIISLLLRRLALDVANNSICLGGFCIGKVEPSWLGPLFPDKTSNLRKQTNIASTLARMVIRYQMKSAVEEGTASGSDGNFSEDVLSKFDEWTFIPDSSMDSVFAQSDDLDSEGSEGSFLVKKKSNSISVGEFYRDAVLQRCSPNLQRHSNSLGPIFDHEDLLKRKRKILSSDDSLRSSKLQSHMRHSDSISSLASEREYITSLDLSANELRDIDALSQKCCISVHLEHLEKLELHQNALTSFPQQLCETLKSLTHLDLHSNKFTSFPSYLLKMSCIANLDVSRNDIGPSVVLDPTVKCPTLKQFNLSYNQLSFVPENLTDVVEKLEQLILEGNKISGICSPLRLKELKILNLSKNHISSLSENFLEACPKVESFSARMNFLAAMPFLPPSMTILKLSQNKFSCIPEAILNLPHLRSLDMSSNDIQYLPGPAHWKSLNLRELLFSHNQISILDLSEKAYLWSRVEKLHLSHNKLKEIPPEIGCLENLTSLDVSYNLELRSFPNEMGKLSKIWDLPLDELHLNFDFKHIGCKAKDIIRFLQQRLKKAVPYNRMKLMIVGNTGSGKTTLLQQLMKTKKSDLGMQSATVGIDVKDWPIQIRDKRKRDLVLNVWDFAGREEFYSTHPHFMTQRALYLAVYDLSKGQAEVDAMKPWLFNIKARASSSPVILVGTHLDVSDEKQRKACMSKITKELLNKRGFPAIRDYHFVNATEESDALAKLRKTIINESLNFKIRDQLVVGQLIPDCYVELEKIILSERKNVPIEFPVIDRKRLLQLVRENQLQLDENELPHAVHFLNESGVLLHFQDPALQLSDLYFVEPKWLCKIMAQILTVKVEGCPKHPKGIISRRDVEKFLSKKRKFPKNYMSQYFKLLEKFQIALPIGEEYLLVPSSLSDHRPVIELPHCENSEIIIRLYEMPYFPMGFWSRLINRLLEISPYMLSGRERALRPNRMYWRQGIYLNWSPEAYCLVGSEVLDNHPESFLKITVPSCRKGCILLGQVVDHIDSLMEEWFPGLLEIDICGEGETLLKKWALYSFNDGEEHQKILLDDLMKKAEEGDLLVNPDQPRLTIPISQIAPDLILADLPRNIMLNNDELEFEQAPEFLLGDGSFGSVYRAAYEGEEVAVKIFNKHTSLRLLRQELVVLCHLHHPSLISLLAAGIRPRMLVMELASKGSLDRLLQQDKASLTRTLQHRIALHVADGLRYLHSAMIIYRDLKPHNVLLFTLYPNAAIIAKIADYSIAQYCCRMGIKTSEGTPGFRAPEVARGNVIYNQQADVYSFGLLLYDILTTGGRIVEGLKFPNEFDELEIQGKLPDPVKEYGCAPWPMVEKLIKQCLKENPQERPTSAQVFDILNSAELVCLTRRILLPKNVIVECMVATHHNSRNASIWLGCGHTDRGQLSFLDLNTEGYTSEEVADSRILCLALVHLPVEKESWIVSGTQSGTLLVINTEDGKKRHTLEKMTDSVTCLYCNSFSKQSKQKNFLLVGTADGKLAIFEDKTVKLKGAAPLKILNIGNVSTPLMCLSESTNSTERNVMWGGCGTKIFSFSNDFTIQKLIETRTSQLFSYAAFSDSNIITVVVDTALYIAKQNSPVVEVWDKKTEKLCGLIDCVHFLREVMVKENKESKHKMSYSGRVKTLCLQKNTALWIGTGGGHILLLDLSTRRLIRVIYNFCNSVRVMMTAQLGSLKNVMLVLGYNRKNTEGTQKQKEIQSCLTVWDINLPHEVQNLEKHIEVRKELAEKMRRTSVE
Chain of Calcium/calmodulin-dependent protein kinase type 1B (Homo sapiens) (Q6P2M8 whole entry): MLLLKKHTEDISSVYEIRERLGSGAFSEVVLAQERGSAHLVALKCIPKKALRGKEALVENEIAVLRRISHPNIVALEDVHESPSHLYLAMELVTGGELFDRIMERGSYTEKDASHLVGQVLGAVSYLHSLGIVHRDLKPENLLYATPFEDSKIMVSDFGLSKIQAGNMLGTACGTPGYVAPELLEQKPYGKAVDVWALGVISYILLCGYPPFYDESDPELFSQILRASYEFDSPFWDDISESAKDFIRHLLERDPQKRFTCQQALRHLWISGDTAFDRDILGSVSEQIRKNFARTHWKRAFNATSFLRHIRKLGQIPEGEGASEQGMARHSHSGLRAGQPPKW
Chain of Phosphatidylinositol 4,5-bisphosphate 3-kinase catalytic subunit alpha isoform (Homo sapiens), P42336 [I800L] (P42336 whole entry I800L, canonical isoform): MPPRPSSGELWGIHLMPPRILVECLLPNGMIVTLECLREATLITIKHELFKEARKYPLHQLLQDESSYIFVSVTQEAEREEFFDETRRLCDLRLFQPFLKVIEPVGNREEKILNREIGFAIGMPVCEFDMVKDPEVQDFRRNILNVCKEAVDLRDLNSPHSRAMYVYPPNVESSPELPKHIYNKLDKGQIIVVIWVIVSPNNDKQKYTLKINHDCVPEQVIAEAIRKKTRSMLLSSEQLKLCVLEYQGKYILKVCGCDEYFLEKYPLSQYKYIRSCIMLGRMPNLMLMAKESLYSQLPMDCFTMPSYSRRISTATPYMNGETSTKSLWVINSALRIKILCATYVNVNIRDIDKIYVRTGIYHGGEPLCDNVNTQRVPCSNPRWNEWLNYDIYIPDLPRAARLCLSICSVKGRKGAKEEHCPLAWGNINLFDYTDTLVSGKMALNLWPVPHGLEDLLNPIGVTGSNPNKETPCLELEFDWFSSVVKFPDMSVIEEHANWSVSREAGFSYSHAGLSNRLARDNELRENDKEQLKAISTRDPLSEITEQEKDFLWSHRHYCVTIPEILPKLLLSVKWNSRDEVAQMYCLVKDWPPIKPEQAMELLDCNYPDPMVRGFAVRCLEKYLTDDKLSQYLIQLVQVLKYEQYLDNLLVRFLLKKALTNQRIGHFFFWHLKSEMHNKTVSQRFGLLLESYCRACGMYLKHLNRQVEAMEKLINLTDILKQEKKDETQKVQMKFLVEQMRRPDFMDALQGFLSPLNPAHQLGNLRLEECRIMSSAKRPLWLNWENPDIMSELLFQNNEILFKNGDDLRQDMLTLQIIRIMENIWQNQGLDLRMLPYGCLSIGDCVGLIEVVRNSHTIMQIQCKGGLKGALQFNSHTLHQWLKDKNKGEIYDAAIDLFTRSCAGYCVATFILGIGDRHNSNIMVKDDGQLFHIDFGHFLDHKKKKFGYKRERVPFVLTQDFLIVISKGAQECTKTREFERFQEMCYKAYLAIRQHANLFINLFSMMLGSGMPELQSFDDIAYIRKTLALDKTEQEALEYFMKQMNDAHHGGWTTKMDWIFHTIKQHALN
Chain of Serine/threonine-protein kinase BRSK1 (Homo sapiens) (Q8TDC3 whole entry): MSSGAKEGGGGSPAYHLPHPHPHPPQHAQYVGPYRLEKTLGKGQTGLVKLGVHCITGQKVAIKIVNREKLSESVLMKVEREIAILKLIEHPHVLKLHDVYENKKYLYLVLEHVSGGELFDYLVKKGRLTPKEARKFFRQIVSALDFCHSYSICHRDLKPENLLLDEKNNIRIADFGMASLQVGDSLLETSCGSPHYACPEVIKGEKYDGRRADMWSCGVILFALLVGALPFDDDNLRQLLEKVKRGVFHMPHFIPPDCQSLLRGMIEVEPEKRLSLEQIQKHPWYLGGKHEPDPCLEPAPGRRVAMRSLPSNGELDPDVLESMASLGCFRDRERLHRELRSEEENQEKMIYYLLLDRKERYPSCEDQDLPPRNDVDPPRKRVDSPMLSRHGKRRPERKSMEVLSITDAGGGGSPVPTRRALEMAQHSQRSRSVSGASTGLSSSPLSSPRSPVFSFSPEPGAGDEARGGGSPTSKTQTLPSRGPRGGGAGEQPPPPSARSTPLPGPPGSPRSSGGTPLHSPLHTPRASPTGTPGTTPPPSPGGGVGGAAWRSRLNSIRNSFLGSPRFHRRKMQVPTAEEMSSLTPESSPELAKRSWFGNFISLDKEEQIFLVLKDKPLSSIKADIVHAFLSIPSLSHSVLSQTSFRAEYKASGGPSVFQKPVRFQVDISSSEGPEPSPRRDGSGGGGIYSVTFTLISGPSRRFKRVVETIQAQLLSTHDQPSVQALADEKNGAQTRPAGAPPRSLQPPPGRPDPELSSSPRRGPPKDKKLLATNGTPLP

Cc1cc(C)c(-n2ccn3nc(-c4cccnc4)cc23)cc1NC(=O)c1cc(C#N)cc(S(F)(F)(F)(F)F)c1 [BAY-826]
Ki ([1]; read-out: Ki): 125 nM
Ki ([1]; read-out: pKi (converted)): 112 nM
residual activity [2, 45]: 87.5%
residual activity [3, 45]: 78.9%
residual activity [4, 45]: 93.2%
residual activity [5, 45]: 95.6%
residual activity [6, 45]: 100%
residual activity [7, 45]: 100%
residual activity [8, 45]: 84%
residual activity [9, 45]: 83.6%
residual activity [10, 45]: 76.7%
residual activity [11, 45]: 81.2%
residual activity [12, 45]: 88.4%
residual activity [13, 45]: 83.5%
residual activity [14, 45]: 0.1%
residual activity [15, 45]: 91.1%
residual activity [16, 45]: 100%
residual activity [17, 45]: 100%
residual activity [18, 45]: 3%
residual activity [19, 45]: 96.2%
residual activity [20, 45]: 95.2%
residual activity [21, 45]: 99.4%
residual activity [22, 45]: 84.9%
residual activity [23, 45]: 87.7%
residual activity [24, 45]: 95.3%
residual activity [25, 45]: 87.3%
residual activity [26, 45]: 73.9%
residual activity [27, 45]: 100%
residual activity [28, 45]: 70.8%
residual activity [29, 45]: 85.4%
residual activity [30, 45]: 98.9%
residual activity [31, 45]: 93.4%
residual activity [32, 45]: 73%
residual activity [33, 45]: 92.8%
residual activity [34, 45]: 76.9%
residual activity [35, 45]: 100%
residual activity [36, 45]: 100%
residual activity [37, 45]: 100%
residual activity [38, 45]: 93%
residual activity [39, 45]: 48.5%
residual activity [40, 45]: 80.8%
residual activity [41, 45]: 62.8%
residual activity (Angiopoietin-1 receptor; [45]): 3.1%
inhibition [42]: 4.82%
inhibition [43]: 16.4%
inhibition [44]: 18.1%

Cc1cc(NC(=O)c2cccc(S(F)(F)(F)(F)F)c2)cc(-n2ccn3nc(-c4cccnc4)cc23)c1 [BAY-309]
Ki ([1]; read-out: Ki): 10000 nM
residual activity [2, 46]: 100%
residual activity [3, 46]: 100%
residual activity [4, 46]: 100%
residual activity [5, 46]: 100%
residual activity [6, 46]: 62.7%
residual activity [7, 46]: 24.4%
residual activity [8, 46]: 100%
residual activity [9, 46]: 100%
residual activity [10, 46]: 86.2%
residual activity [11, 46]: 100%
residual activity [12, 46]: 100%
residual activity [13, 46]: 100%
residual activity [14, 46]: 0%
residual activity [15, 46]: 98.2%
residual activity [16, 46]: 76%
residual activity [17, 46]: 100%
residual activity [18, 46]: 100%
residual activity [19, 46]: 49.4%
residual activity [20, 46]: 86.8%
residual activity [21, 46]: 100%
residual activity [22, 46]: 100%
residual activity [23, 46]: 66.1%
residual activity [24, 46]: 100%
residual activity [25, 46]: 96%
residual activity [26, 46]: 81.3%
residual activity [27, 46]: 83.2%
residual activity [28, 46]: 89.7%
residual activity [29, 46]: 100%
residual activity [30, 46]: 100%
residual activity [31, 46]: 100%
residual activity [32, 46]: 69.2%
residual activity [33, 46]: 96%
residual activity [34, 46]: 100%
residual activity [35, 46]: 100%
residual activity [36, 46]: 100%
residual activity [37, 46]: 85.9%
residual activity [38, 46]: 66.2%
residual activity [39, 46]: 95.2%
residual activity [40, 46]: 93.1%
residual activity [41, 46]: 49.7%
residual activity (Angiopoietin-1 receptor; [46]): 84.2%
inhibition [42]: 20.6%
inhibition [43]: 12.4%
inhibition [44]: 11.9%
